Experimental data from US8143242B2, “Malonamide derivatives with antithrombotic activity” (Sanofi-Aventis, priority 2007, dated 2012).
Where a name gives a salt, the structure may show the parent alone.

Target: T1, human factor VIIa and TF (factor VIIa/tissue factor) (Homo sapiens, UniProt P08709)
T1 construct: human factor VIIa and TF
Experiment: Factor VIIa (FVIIa) chromogenic assay
Assay type: biochemical
Details: chromogenic substrate S-2288 500 μM; 5 nM FVIIa, 10 nM TF; 25° C.; 15 minute preincubation; pH 8.15
Description: The ability of the compounds of the formulae I and Ia to inhibit factor VIIa or other enzymes like factor Xa, thrombin, plasmin, or trypsin can be assessed by determining the concentration of the compound of the formulae I and Ia that inhibits enzyme activity by 50%, i. e. the IC50 value, which is related to the inhibition constant Ki. Purified enzymes are used in chromogenic assays. The concentration of inhibitor that causes a 50% decrease in the rate of substrate hydrolysis is determined by linear regression after plotting the relative rates of hydrolysis (compared to the uninhibited control) versus the log of the concentration of the compound of formulae I and Ia. For calculating the inhibition constant Ki, the IC50 value is corrected for competition with substrate using the formula Ki=IC50/{1+(substrate concentration/Km)} wherein Km is the Michaelis-Menten constant (Chen and Prusoff, Biochem. Pharmacol. 22 (1973), 3099-3108; I. H. Segal, Enzyme Kinetics, 1975, John Wiley & Sons, New York, 100-125; which are incorporated herein by reference).
Factor VIIa (FVIIa) Assay
The inhibitory activity (expressed as inhibition constant Ki(FVIIa)) of the compounds of formulae I and Ia towards factor VIIa/tissue factor activity was determined using a chromogenic assay essentially as described previously (J. A. Ostrem et al., Biochemistry 37 (1998) 1053-1059 which is incorporated herein by reference). Kinetic assays were conducted at 25° C. in half-area microtiter plates (Costar Corp., Cambridge, Ma.) using a kinetic plate reader (Molecular Devices Spectramax 250). A typical assay consisted of 25 μl human factor VIIa and TF (5 nM and 10 nM, respective final concentration) combined with 40 μl of inhibitor dilutions in 10% DMSO/TBS-PEG buffer (50 mM Tris, 15 mM NaCl, 5 mM CaCl2, 0.05% PEG 8000, pH 8.15). Following a 15 minute preincubation period, the assay was initiated by the addition of 35 μl of the chromogenic substrate S-2288 (D-Ile-Pro-Arg-p-nitroanilide, Pharmacia Hepar Inc., 500 μM final concentration).

T1 sequence (P08709 213-466 limits assumed): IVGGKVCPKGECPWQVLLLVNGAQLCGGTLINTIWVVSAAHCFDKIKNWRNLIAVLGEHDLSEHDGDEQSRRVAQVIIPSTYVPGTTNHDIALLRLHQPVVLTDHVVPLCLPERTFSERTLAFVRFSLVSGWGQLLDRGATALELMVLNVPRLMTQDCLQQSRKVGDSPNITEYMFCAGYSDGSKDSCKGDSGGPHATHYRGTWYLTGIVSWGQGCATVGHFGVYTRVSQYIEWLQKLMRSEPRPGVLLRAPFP
T1 sequence (P08709 61-212 limits assumed): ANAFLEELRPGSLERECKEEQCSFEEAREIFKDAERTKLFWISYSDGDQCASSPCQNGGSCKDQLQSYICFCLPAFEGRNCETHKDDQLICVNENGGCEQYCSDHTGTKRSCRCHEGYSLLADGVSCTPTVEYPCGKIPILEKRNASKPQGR
T1 sequence (P13726 33-295 partner): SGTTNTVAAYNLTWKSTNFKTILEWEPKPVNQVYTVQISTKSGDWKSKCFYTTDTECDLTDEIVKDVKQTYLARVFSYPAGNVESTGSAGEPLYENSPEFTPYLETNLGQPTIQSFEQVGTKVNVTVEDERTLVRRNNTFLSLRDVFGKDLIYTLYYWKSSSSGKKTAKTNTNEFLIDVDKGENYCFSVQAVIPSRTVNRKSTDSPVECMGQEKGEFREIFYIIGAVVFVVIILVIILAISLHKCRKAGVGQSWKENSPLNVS

| Molecule | Ki [nM] |
| --- | --- |
| CC(NC(=O)CC(=O)Nc1ccc(C(=N)N)cc1)c1ccc(OCc2ccoc2)c(Br)c1 (centres unmarked) [Example 52] | 87 |
| CC(NC(=O)CC(=O)Nc1ccc(C(=N)N)cc1)c1ccc(Oc2cccc(CO)c2)c(Br)c1 (centres unmarked) [Example 2, N-{1-[3-Bromo-4-(3-hydroxymethyl-phenoxy)-phenyl]-ethyl}-N′-(4-carbamimidoyl-phenyl)-malonamide*trifluoro-acetic acid salt] | 171 |
| C[C@H](NC(=O)CC(=O)Nc1ccc(C(=N)N)cc1)c1ccc(OCCO)c(C(F)(F)F)c1 [Example 26] | 47 |
| COC1CCC(Oc2ccc(C(C)NC(=O)CC(=O)Nc3ccc(C(=N)N)cc3)cc2C(F)(F)F)CC1 (centres unmarked) [Example 50] | 80 |
| CC(NC(=O)CC(=O)Nc1ccc(C(=N)N)cc1)c1ccc(OCCCCCC(=O)O)c(Br)c1 (centres unmarked) [Example 3] | 169 |
| CC(NC(=O)CC(=O)Nc1ccc(C(=N)N)cc1)c1ccc(S(=O)(=O)N2CCOCC2)c(C(F)(F)F)c1 (centres unmarked) [Example 28, N-(4-Carbamimidoyl-phenyl)-N′-{1-[4-(morpholine-4-sulfonyl)-3-trifluoromethyl-phenyl]-ethyl}-malonamide*trifluoro-acetic acid salt] | 55 |
| C[C@H](NC(=O)CC(=O)Nc1ccc(C(=N)N)cc1)c1ccc(Oc2cncc(C(=O)O)c2)c(Br)c1 [Example 1, 5-(2-Bromo-4-{(S)-1-[2-(4-carbamimidoyl-phenylcarbamoyl)-acetylamino]-ethyl}-phenoxy)-nicotinic acid*acetic acid salt] | 41 |
| CC(NC(=O)CC(=O)Nc1ccc(C(=N)N)cc1)c1ccc(OCCCN2CCCC2=O)c(C(F)(F)F)c1 (centres unmarked) [Example 44] | 78 |
| Cc1ncsc1CCOc1ccc(C(C)NC(=O)CC(=O)Nc2ccc(C(=N)N)cc2)cc1Br (centres unmarked) [Example 61] | 87 |
| COCCOc1ccc([C@H](C)NC(=O)CC(=O)Nc2ccc(C(=N)N)cc2)cc1C(F)(F)F [Example 10, N-(4-Carbamimidoyl-phenyl)-N′—{(S)-1-[4-(2-methoxy-ethoxy)-3-trifluoromethyl-phenyl]-ethyl}-malonamide] | 24 |
| CC(NC(=O)CC(=O)Nc1ccc(C(=N)N)cc1)c1ccc(OCCCCO)c(C(F)(F)F)c1 (centres unmarked) [Example 51] | 122 |
| N-(4-Carbamimidoyl-phenyl)-N′—[(S)-1-(3-trifluoromethanesulfonyl-phenyl)-ethyl]-malonamide*trifluoro-acetic acid salt [Example 77] | 99 |
| CC(C)OCCOc1ccc(C(C)NC(=O)CC(=O)Nc2ccc(C(=N)N)cc2)cc1C(F)(F)F (centres unmarked) [Example 24] | 61 |

Continued, values first:

| Ki [nM] | Molecule |
| --- | --- |
| 7 | C[C@H](NC(=O)CC(=O)Nc1ccc(C(=N)N)cc1)c1ccc(OC2CCOCC2)c(-c2ccc(Cl)s2)c1 [Example 113] |
| 27 | COCCN(C)S(=O)(=O)c1ccc([C@H](C)NC(=O)CC(=O)Nc2ccc(C(=N)N)cc2)cc1C(F)(F)F [Example 76] |
| 37 | COCCNS(=O)(=O)c1ccc([C@H](C)NC(=O)CC(=O)Nc2ccc(C(=N)N)cc2)cc1C(F)(F)F [Example 75] |
| 588 | CC(NC(=O)CC(=O)Nc1ccc(C(=N)N)cc1)c1ccc(S(=O)(=O)Cc2ccncc2)c(Cl)c1 (centres unmarked) [Example 67] |
| 36 | CC(NC(=O)CC(=O)Nc1ccc(C(=N)N)cc1)c1ccc(S(=O)(=O)c2ccncc2)c(C(F)(F)F)c1 (centres unmarked) [Example 74, N-(4-Carbamimidoyl-phenyl)-N′-{1-[4-(pyridine-4-sulfonyl)-3-trifluoromethyl-phenyl]-ethyl}-malonamide*trifluoro-acetic acid salt] |
| 29 | C[C@H](NC(=O)CC(=O)Nc1ccc(C(=N)N)cc1)c1ccc(S(=O)(=O)N2CCOC[C@@H]2C)c(C(F)(F)F)c1 [Example 112] |
| 30 | C[C@H](NC(=O)CC(=O)Nc1ccc(C(=N)N)cc1)c1ccc(S(=O)(=O)N2CCOCC2)c(Br)c1 [Example 117] |
